Assay results as given in patent publication US20220313656A1, “NEW CLASS OF ANTIBIOTICS HAVING LOW MIC-VALUES TOWARDS DIFFERENT STRAINS OF BACTERIA” (priority 2019, published 2022).
Like-named read-outs stand apart in the source and are kept apart here.

Assays:
Assay in all cases: MIC, serial dilution method (CLSI)
[1] = system: S. aureus CC398; assay type: cell-based, Staphylococcus aureus
Method: (§1) These inoculums were each in diluted 1:100 in Müller Hinton (MH) broth (Sigma, Copenhagen, Denmark). From the diluted inoculums 100 μl was transferred to each well in a 96-well plate and mixed with the compound to be MIC determined. The plate was incubated for 24 hours at 37° C. (without shaking). The MIC value was determined as the lowest concentration in which no bacterial growth could be visually detected. All MIC determinations were done in duplicates. […] Since all derivatives are new, no control strains (with reference MIC values) were available.

[2] = system: S. aureus USA300; assay type: cell-based, Staphylococcus aureus
Method: as §1

[3] = system: E. faecalis; assay type: cell-based, Enterococcus faecalis
Method: as §1

[4] = system: E. coli APEC O2; assay type: cell-based, Escherichia coli
Method: as §1

[5] = system: Staphylococus pseudintermedius; assay type: cell-based, Staphylococcus pseudintermedius
Method: as §1

[6] = system: E. faecium; assay type: cell-based, Enterococcus faecium
Method: as §1

[7] = system: Bacillus cereus; assay type: cell-based
Method: as §1

[8] = system: Listeria monocytogenes; assay type: cell-based
Method: as §1

[9] = system: Salmonella enteritidis; assay type: cell-based
Method: as §1

[10] = system: Streptococcus equi; assay type: cell-based
Method: as §1

[11] = Staphylococcus aureus, MRSA, 24 h, read-out: MIC
[12] = Staphylococcus aureus, USA300, 24 h, read-out: MIC
[13] = Enterococcus faecalis, 24 h, read-out: MIC
[14] = Escherichia coli, APECO2, 24 h, read-out: MIC
[15] = Staphylococcus pseudintermedius, 24 h, read-out: MIC
[16] = Enterococcus faecium, 24 h, read-out: MIC
[17] = Salmonella enterica, ENTERITIDIS, 24 h, read-out: MIC
[18] = S. aureus CC398 (MRSA strain), MH broth, 24 hours at 37° C., set to 256 if growth at […]
[19] = S. aureus USA300, MH broth, 24 hours at 37° C., set to 256 if growth at […]
[20] = E. faecalis, MH broth, 24 hours at 37° C., set to 256 if growth at […]
[21] = E. coli APEC O2, MH broth, 24 hours at 37° C., set to 256 if growth at […]
[22] = Staphylococus pseudintermedius, MH broth, 24 hours at 37° C., set to 256 if growth at […]
[23] = E. faecium, MH broth, 24 hours at 37° C., set to 256 if growth at […]
[24] = MH broth, 24 hours at 37° C., set to 256 if growth at […]
[25] = Salmonella enteritidis, MH broth, 24 hours at 37° C., set to 256 if growth at […]

Row | Compound | MIC [1, 11] [µg/mL] | MIC [2, 12] [µg/mL] | MIC [3, 13] [µg/mL] | MIC [4, 14] [µg/mL] | MIC [5, 15] [µg/mL] | MIC [6, 16] [µg/mL] | MIC ([7]; 24 h, read-out: MIC) [µg/mL] | MIC ([8]; 24 h, read-out: MIC) [µg/mL] | MIC [9, 17] [µg/mL] | MIC ([10]; 24 h, read-out: MIC) [µg/mL] | MIC [1, 18] [µg/mL] | MIC [2, 19] | MIC [3, 20] [µg/mL] | MIC [4, 21] [µg/mL] | MIC [5, 22] [µg/mL] | MIC [6, 23] [µg/mL] | MIC [7, 24] [µg/mL] | MIC [8, 24] [µg/mL] | MIC [9, 25] [µg/mL] | MIC [10, 24] [µg/mL]
1 | CC(CN1c2ccccc2Sc2ccccc21)N(C)C.Cl (stereo not shown) [Compound S12, N,N-dimethyl-1-(10H-phenothiazin-10-yl)propan-2-amine hydrochloride, reference compound] | 128 | 128 | 128 | 128 | 64 | 256 | 256 | 128 | 256 | 64 | – | – | – | – | – | – | – | – | – | –
2 | CC(C)=CCCC(C)CC[N+](C)(C)C(C)CN1c2ccccc2Sc2ccccc21.Cc1ccc(S(=O)(=O)[O-])cc1 (stereo not shown) [Compound S45, N-(1-(10H-phenothiazin-10-yl)propan-2-yl)-N,N,3,7-tetramethyloct-6-en-1-aminium 4-methylbenzenesulfonate] | – | 4 | – | – | – | – | – | – | – | – | – | – | – | – | – | – | – | – | – | –
3 | COC(=O)CCCCC[N+](C)(C)C(C)CN1c2ccccc2Sc2ccccc21 (stereo not shown) [Promethazine 6-Methoxy-6-oxo-1-hexyl] | – | – | – | – | – | – | – | – | – | – | 64 | 64 µg/mL | 256 | 256 | 32 | 128 | 128 | 128 | 256 | 32
4 | CSc1ccc2c(c1)N(CCC1CCCC[N+]1(C)C)c1ccccc1S2.[I-] (stereo not shown) [Compound S24, 1,1-dimethyl-2-(2-(2-(methylthio)-10H-phenothiazin-10-yl)ethyl)piperidin-1-ium iodide] | 16 | 16 | 128 | 256 | 8 | 64 | 16 | 32 | 128 | 8 | – | – | – | – | – | – | – | – | – | –
5 | CN(C)CC/C=C1/c2ccccc2Sc2ccc(Cl)cc21.Cl [Compound S34, (Z)-3-(2-chloro-9H-thioxanthen-9-ylidene)-N,N-dimethylpropan-1-amine hydrochloride, reference compound] | 32 | 32 | 32 | 64 | 32 | 32 | 64 | 32 | 128 | 256 | – | – | – | – | – | – | – | – | – | –
6 | CC(C)CC[N+](C)(C)C(C)CN1c2ccccc2Sc2ccccc21.[Br-] (stereo not shown) [Compound S16, N-(1-(10H-phenothiazin-10-yl)propan-2-yl)-N,N,3-trimethylbutan-1-aminium bromide] | 16 | 16 | 64 | 64 | 8 | 64 | 16 | 32 | 128 | 8 | – | – | – | – | – | – | – | – | – | –
7 | CCOC(=O)CC[N+](C)(C)CCCN1c2ccccc2Sc2ccc(Cl)cc21 [Chlorpromazine 3-Ethoxy-3-oxo-1-propyl] | – | – | – | – | – | – | – | – | – | – | 64 | 64 µg/mL | 64 | 128 | 32 | 32 | 128 | 64 | 64 | 32
8 | CC[N+](C)(C)C(C)CN1c2ccccc2Sc2ccccc21.[Br-] (stereo not shown) [Compound S14, N-ethyl-N,N-dimethyl-1-(10H-phenothiazin-10-yl)propan-2-aminium bromide] | 64 | 128 | 256 | 256 | 32 | 128 | 256 | 32 | 256 | 32 | – | – | – | – | – | – | – | – | – | –
9 | CCCCCCCCCCCC[N+](C)(C)CC/C=C1/c2ccccc2Sc2ccc(Cl)cc21.[Br-] [Compound S39, (Z)—N-(3-(2-chloro-9H-thioxanthen-9-ylidene)propyl)-N,N-dimethyldodecan-1-aminium bromide] | – | 4 | – | – | – | – | – | – | – | – | – | – | – | – | – | – | – | – | – | –
10 | CCCCCCCCCCCCCC[N+](C)(C)C(C)CN1c2ccccc2Sc2ccccc21.[Br-] (stereo not shown) [Compound S44, N-(1-(10H-phenothiazin-10-yl)propan-2-yl)-N,N-dimethyltetradecan-1-aminium bromide] | – | – | – | – | – | – | – | – | – | – | – | 8/16 | – | – | – | – | – | – | – | –
